Reference: patent US20170283426A1, “COMPOUNDS FOR THE INHIBITION OF CYCLOPHILINS AND USES THEREOF” (Merck Patent GmbH, priority 2016, published 2017)

Assays:
CypD [1] = molecular target: T1, CypD (Homo sapiens, UniProt P30405); test: SPR binding; details: SPR surface; read-out: SPR CypD (KDss)
Text: Binding was confirmed on an SPR surface using a protocol adapted from Mori et al., J. Biomolecular Screening, 2009 p 419.

CypD [2] = molecular target: T1, CypD; test: CypD binding assay, competition Fluorescence-Polarisation with fluorescine labelled cyclosporin
Procedure: The binding capacity of the compounds were measured using a competition Fluorescence-Polarisation based assay with fluorescine labelled cyclosporin. The protocol used was adapted from Hausch et al, Med Chem lett 2010, p 536.

T1 sequence (P30405 30-207): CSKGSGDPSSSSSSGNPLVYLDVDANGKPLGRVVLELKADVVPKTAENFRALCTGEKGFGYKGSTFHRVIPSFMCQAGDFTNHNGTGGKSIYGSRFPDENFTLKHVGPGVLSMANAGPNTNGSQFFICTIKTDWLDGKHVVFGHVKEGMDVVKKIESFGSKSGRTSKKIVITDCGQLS

Work on `O=C(NCCc1ccc2c(c1)[C@H]1C[C@@H](N2)[C@H](O)CO1)C(=O)N[C@@H]1C[C@H]2CC[C@@H]1C2` [Compound 2, N-Bicyclo[2.2.1]hept-2-yl-N′-[2-((1R,9R,10S)-10-hydroxy-12-oxa-8-aza-tricyclo[7.3.1.02,7]trideca-2,4,6-trien-4-yl)-ethyl]-oxalamide] yielded a Kd (CypD [1]) of less than 10 µM and an IC50 (CypD [2]) of less than 10 µM.

`O=C(NCCc1ccccc1)C(=O)NCCc1ccc2c(c1)[C@H]1C[C@@H](N2)[C@H](O)CO1` [Compound 3, N1-(2-((2R,3S,6R)-3-hydroxy-2,3,4,6-tetrahydro-1H-2,6-methanobenzo[c][1,5]oxazocin-8-yl)ethyl)-N2-phenethyloxalamide] was tested, and the Kd (CypD [1]) was less than 10 µM and the IC50 (CypD [2]) was less than 10 µM.

`CC(C)CNC(=O)C(=O)NCCc1ccc2c(c1)[C@H]1C[C@@H](N2)[C@H](O)CO1` [Compound 4, N-1-(2-((2R,3S,6R)-3-hydroxy-2,3,4,6-tetrahydro-1H-2,6-methanobenzo[c][1,5]oxazocin-8-yl)ethyl)-N2-isobutyloxalamide] showed a Kd (CypD [1]) of less than 10 µM and an IC50 (CypD [2]) of less than 10 µM.

Compound `O=C(NCCc1cccc(C(F)(F)F)c1)C(=O)NCCc1ccc2c(c1)[C@H]1C[C@@H](N2)[C@H](O)CO1` [Compound 5, N1-(2-((2R,3S,6R)-3-hydroxy-2,3,4,6-tetrahydro-1H-2,6-methanobenzo[c][1,5]oxazocin-8-yl)ethyl)-N2-(3-(trifluoromethyl)phenethyl)oxalamide] has a Kd (CypD [1]) of less than 10 µM and an IC50 (CypD [2]) of less than 10 µM.

Compound `CSc1ccccc1[C@H]1CCCN1C(=O)C(=O)NCCc1ccc2c(c1)[C@H]1C[C@@H](N2)[C@H](O)CO1` [Compound 6, N-[2-((1R,9R,10S)-10-hydroxy-12-oxa-8-aza-tricyclo[7.3.1.02,7]trideca-2(7),3,5-trien-4-yl)-ethyl]-2-[(R)-2-(2-methylsulfanyl-phenyl)-pyrrolidin-1-yl]-2-oxo-acetamide] has a Kd (CypD [1]) of 10 to 100 µM and an IC50 (CypD [2]) of 10 to 100 µM.

`O=C(NCCc1ccccc1)C(=O)NCCc1ccc2c(c1)[C@@H]1C[C@H](N2)[C@H](O)CO1` [Compound 8, N1-(2-((2S,3S,6S)-3-hydroxy-2,3,4,6-tetrahydro-1H-2,6-methanobenzo[c][1,5]oxazocin-8-yl)ethyl)-N2-phenethyloxalamide] showed a Kd (CypD [1]) of 10 to 100 µM and an IC50 (CypD [2]) of 10 to 100 µM.

`CC(C)(C)CNC(=O)C(=O)NCCc1ccc2c(c1)[C@@H]1C[C@H](N2)[C@H](O)CO1` [Compound 10, N1-(2-((2S,3S,6S)-3-hydroxy-2,3,4,6-tetrahydro-1H-2,6-methanobenzo[c][1,5]oxazocin-8-yl)ethyl)-N2-neopentyloxalamide] gave a Kd (CypD [1]) of 10 to 100 µM and an IC50 (CypD [2]) of 10 to 100 µM.

With `O=C(NCCc1ccc2c(c1)[C@H]1C[C@@H](N2)[C@H](O)CO1)C(=O)NCc1cccc(C(F)(F)F)c1` [Compound 11, N1-(2-((2R,3S,6R)-3-hydroxy-2,3,4,6-tetrahydro-1H-2,6-methanobenzo[c][1,5]oxazocin-8-yl)ethyl)-N2-(3-(trifluoromethyl)benzyl)oxalamide] the Kd (CypD [1]) was 10 to 100 µM and the IC50 (CypD [2]) was 10 to 100 µM.

In the case of `O=C(NCCc1cccc(C(F)(F)F)c1)C(=O)NCCc1ccc2c(c1)[C@@H]1C[C@H](N2)[C@H](O)CO1` [Compound 12, N1-(2-((2S,3S,6S)-3-hydroxy-2,3,4,6-tetrahydro-1H-2,6-methanobenzo[c][1,5]oxazocin-8-yl)ethyl)-N2-(3-(trifluoromethyl)phenethyl)oxalamide], the Kd (CypD [1]) is reported as 10 to 100 µM and the IC50 (CypD [2]) is reported as 10 to 100 µM.

Work on `O=C(NCc1ccc2c(c1)[C@@H]1C[C@H](N2)[C@H](O)CO1)C(=O)NC1CCCC1` [Compound 13, N-Cyclopentyl-N′-((1S,9S,10S)-10-hydroxy-12-oxa-8-aza-tricyclo[7.3.1.02,7]trideca-2,4,6-trien-4-ylmethyl)-oxalamide] yielded a Kd (CypD [1]) of 10 to 100 µM and an IC50 (CypD [2]) of 10 to 100 µM.
